# Results as given in article PMC5380659, “Unique charge-dependent constraint on collagen recognition by integrin α10β1” (Matrix Biology, 2017).
# “Also recorded” adds a separate entry of the source.
# Experiments:
# integrin α1β1 = tested on: integrin α1β1; parameters: method as in 3 sources, ref [4]; PMID 19693543; doi:10.1007/s00441-009-0834-6; 4 Barczyk M. Carracedo S. Gullberg D. Integrins Cell Tissue Res. 339 1 2010 269 280 19693543 10.1007/s00441-009-0834-6 PMC2784866 ||| ref [12] = [12]; PMID 22654115; doi:10.1074/jbc.M112.353144; 12 Hamaia S.W. Pugh N. Raynal N. Nemoz B. Stone R. Gullberg D. Bihan D. Farndale R.W. Mapping of potent and specific binding motifs, GLOGEN and GVOGEA, for integrin alpha1beta1 using collagen toolkits ||| ref not given; details: cited from earlier work
# Description: The collagen-binding integrin family is complete, with four established members, α1β1, α2β1, α10β1 and α11β1. These are highly-conserved, heterodimeric receptors with an important structural feature in common, the presence of an I (inserted) domain which contains the metal ion-dependent adhesion site (MIDAS). The MIDAS is a constellation of electronegative residues at the distal surface of this 200-residue domain that, in the resting, non-ligated state, can co-ordinate a Mg^2 + ion. […] Many related motifs have now been identified using the Collagen Toolkits developed in this laboratory for the purpose. These are libraries of overlapping peptides of 27 amino acids of collagen primary sequence (guest sequence), flanked ... || Why would collagen II differ in this respect?
# α2-Q215R I domain = test: SPBA of α2-Q215R mutant I domain; format: binding, human; details: Gln215 replaced with Arg, Fig. 8E
# Description: (§1) To test this hypothesis, we replaced the corresponding Q214 and Q215 in α1 and α2 I domains, respectively, with R, as in α10, and we replaced the R215 in the α10 I domain with Q, as in α1 and α2.
# (§2) Fig. 8 Arginine substitution of I domain surface reduces binding to Toolkit peptide III-4. Wild type I domain from α1, α2 and α10 were allowed to adhere to Toolkit peptide III-4 that contains GROGER, as described in Fig. 1, and binding is shown in A, B and C, respectively. In D and E, the natural glutamine residues of α1, Q214, and of α2, Q215, was replaced with arginine. In F, the natural arginine, R215, of α10 was replaced with glutamine.
# (§3) pGEX-2T-α1, α2 and α10 I were used to generate the Q to R or R to Q mutations using QuikChange PCR kit from Stratagene (200518).
# To express α2 wild type and mutant I domains, a 100-ml overnight culture of transformants (Origami strain) was used to inoculate 1 L of Luria broth containing 100 μg/ml ampicillin, 15 μg/ml Kanamycin and 12.5 μg/ml Tetracyclin. The culture was grown for 2 h at 37 °C and then induced at room temperature for 4 h with isopropyl β-D-thiogalactopyranoside (0.1 mM, Melford Laboratories, UK, #MB1008). […]
# (§4) I domain adhesion was determined colorimetrically, as described, here termed solid phase binding assay (SPBA). […]
# [1] = tested on: human recombinant GST-α10-R215Q I-domain; test: SPBA of α10-R215Q mutant I domain; format: binding; details: 2 mM MgCl2, relative to wild type α10 I domain, Fig. 8F, Fig. 9
# Description: The I domain was first applied to the collagen II and III Toolkits in the presence or absence of Mg^2 +, detected using anti-GST as before, and data are shown in Fig. 9A and B. α10-R215Q I domain binding was Mg^2 +-dependent, reproducing the wild type Toolkit II data shown in Fig. 1A.
# as §3
# To express α2 wild type and mutant I domains, a 100-ml overnight culture of transformants (Origami strain) was used to inoculate 1 L of Luria broth containing 100 μg/ml ampicillin, 15 μg/ml Kanamycin and 12.5 μg/ml Tetracyclin. The culture was grown for 2 h at 37 °C and then induced at room temperature for 4 h with isopropyl β-D-thiogalactopyranoside (0.1 mM, Melford Laboratories, UK, #MB1008). Cells were harvested by centrifugation at 4500g for 20 min, and pellets for GST-fusion were resuspended in 10 ml Dulbecco's phosphate-buffered saline, containing 1 tablet of protease inhibitor cocktail (Roche) and 5 mg of lysozyme (Fluka). Suspensions were sonicated and Triton X-100 was added to 1% (v/v). Suspensions were mixed on a roller for 15 min at room temperature, then centrifuged at 18,000 × g for 20 min, and supernatants were pooled. […]
# as §4
# α1-Q214R I domain = test: SPBA of α1-Q214R mutant I domain; format: binding, human; details: Gln214 replaced with Arg, Fig. 8D
# Description: as §1, §2, §3
# I domain adhesion was determined colorimetrically, as described, here termed solid phase binding assay (SPBA). Peptides were coated at 10 μg/ml for 1 h at 22 °C on Immulon-2 HB 96-well plates (Thermo Life Sciences, Basingstoke, UK), and blocked for 1 h with 200 μl of TBS containing 50 mg/ml bovine serum albumin. Wells were washed four times with 200 μl of the adhesion buffer (TBS with 1 mg/ml bovine serum albumin) before adding 100 μl of adhesion buffer containing 10 μg/ml of recombinant GST I domains in the presence of either 2 mM MgCl2 or EDTA for 1 h at room temperature. […]
# C2C12-α11β1 cells = test: xCELLigence real-time adhesion of C2C12-α11β1 cells; format: cell-based, mouse; details: up to 1 h, compared to GFOGER, Fig. 6D
# C2C12-α10β1 cells = test: xCELLigence real-time adhesion of C2C12-α10β1 cells; format: cell-based, mouse; details: up to 1 h, compared with GPP10 negative control, Fig. 6C
# Method: Fig. 3 Binding of α10β1-transfected C2C12 cells to collagens and selected Toolkit peptides. Peptides or collagens were coated on ePlates as described, then cells were added in the presence of 2 mM Mg^2 + or EDTA, and Cell Index value was collected over 1 h. […] B: time courses are shown of adhesion to selected Toolkit peptides or GPP-10.
# To quantitate C2C12-α10β1 binding to collagen peptides, we used the impedance-based xCELLigence system (Acea) that allows label-free, dynamic monitoring of cell adhesion in real-time. The assay system expresses the adhesion-dependent rise in well impedance in units of cell index (CI), defined as (Rn − Rb) / 15; where Rn is the electrical impedance of each cell-containing well and Rb is the background impedance of the well with medium alone
# Briefly, C2C12 cells were seeded at 2.5 × 10^4 cells/well in an E-plate (Roche Applied Science) pre-coated with peptides as for SPBA, and CI was measured for up to 2 h.
Substance,Affinity for integrin α1β1 (integrin α1β1; ref [12]),"Affinity for integrin α1β1, discussion (integrin α1β1; ref not given)",Binding of α2-Q215R I domain (α2-Q215R I domain),Binding of α10-R215Q I domain [1],Binding of α1-Q214R I domain (α1-Q214R I domain),Adhesion of C2C12-α11β1 cells to short THP (time course) (C2C12-α11β1 cells),Cell adhesion to short THPs (time course) (C2C12-α10β1 cells)
GLOGEN [short THP containing GLOGEN],high-affinity ligand,high-affinity site,–,–,–,–,–
GROGER [short triple-helical peptide containing GROGER],–,–,impaired their binding; also recorded: failed to bind; also recorded: collapse of binding,restored binding; also recorded: better binding,impaired their binding; also recorded: failed to bind; also recorded: collapse of binding,bound quite well,poor binding; also recorded: of comparable level to the GPP10 negative control peptide
